The record followed here is article PMC6301270 (MedChemComm, 2018).

For the assay, the system named is T.b. brucei (strain 427) bloodstream form parasites. The assay can be described thus: T.b. brucei single concentration screen (10 μM). Conditions: Trypanosoma brucei, read-out: T.b.brucei % viability (10 µM).
As for `O=C(C(Cc1c[nH]c2ccccc12)NS(=O)(=O)c1ccc(Cl)cc1)N1CCCCC1` (centres unmarked) [MMV085210, Clc1ccc(cc1)S(=O)(=O)NC(Cc2c[nH]c3ccccc23)C(=O)N4CCCCC4], the viability at 10 µM was 108%. Consider `CCCNC(=O)N1CCC2(CC1)CC(=O)c1cc(C)ccc1O2` [MMV085230, CCCNC(=O)N1CCC2(CC1)CC(=O)c3cc(C)ccc3O2], for which the viability at 10 µM came out at 103%. Regarding `N#Cc1ccc(-c2cnc(N)c(-c3ccc(C(N)=O)cc3)n2)cc1` [MMV085499, NC(=O)c1ccc(cc1)c2nc(cnc2N)c3ccc(cc3)C#N], the viability at 10 µM stood at 31%. The figure for `O=C(Nc1nnc(-c2ccc(Cl)cc2)o1)c1cccc(C(F)(F)F)c1` [MMV102872, FC(F)(F)c1cccc(c1)C(=O)Nc2oc(nn2)c3ccc(Cl)cc3] is 51%; for `CCC(C)NC(=O)c1ccc(NC(=O)C2(c3ccccc3)CCCC2)cc1` (centres unmarked) [MMV146306, CCC(C)NC(=O)c1ccc(NC(=O)C2(CCCC2)c3ccccc3)cc1] it is 69%; for `Cc1cc(Cl)ccc1NC(=O)CCc1ccc(S(=O)(=O)NCC(C)C)cc1` [MMV161996, CC(C)CNS(=O)(=O)c1ccc(CCC(=O)Nc2ccc(Cl)cc2C)cc1] it is 97%.

As to `COc1ccc(C2(C(=O)Nc3ccc(Br)cc3)CCCC2)cc1` [MMV200748, COc1ccc(cc1)C2(CCCC2)C(=O)Nc3ccc(Br)cc3], the viability at 10 µM was found to be 100%. The result for `COc1ccc(OC(C)C(=O)Nc2ccc(Cl)cc2C)cc1` (centres unmarked) [MMV202458, COc1ccc(OC(C)C(=O)Nc2ccc(Cl)cc2C)cc1] reads 94%. `COc1cccc(NC(=O)c2c(NC(=O)c3cccnc3)sc3c2CCC3)c1` [MMV228911, COc1cccc(NC(=O)c2c3CCCc3sc2NC(=O)c4cccnc4)c1]: the viability at 10 µM was found to be 97%. Consider `COc1cccc(-c2cc3c(Nc4cccnc4)nccc3[nH]2)c1` [MMV392832, COc1cccc(c1)c2cc3c(Nc4cccnc4)nccc3[nH]2], for which the viability at 10 µM was 101%. The figure for `CN1CCN(c2nccc3[nH]c(-c4cccc(F)c4)cc23)CC1` [MMV393144, CN1CCN(CC1)c2nccc3[nH]c(cc23)c4cccc(F)c4] is 59%; for `Cc1cc(O)nc(-n2nc(C)cc2C)n1` [MMV393995, Cc1cc(O)nc(n1)n2nc(C)cc2C] it is 71%; for `CCc1nc2ccc(C(=O)NCc3ccc4c(c3)OCO4)cn2c1N(C)Cc1cccs1` [MMV407539, CCc1nc2ccc(cn2c1N(C)Cc3cccs3)C(=O)NCc4ccc5OCOc5c4] it is 82%.

On to `CCOc1ccccc1NC(C)C(=O)Nc1cc(C(F)(F)F)ccc1N1CCOCC1` (centres unmarked) [MMV407834, CCOc1ccccc1NC(C)C(=O)Nc2cc(ccc2N3CCOCC3)C(F)(F)F], for which the viability at 10 µM is 104%. Take `CS(=O)(=O)Cc1nc2ccccc2oc1=O` [MMV553002, CS(=O)(=O)CC1=Nc2ccccc2OC1=O]: the viability at 10 µM was determined as 114%. On to `c1ccc(-c2cc(N3CCCCC3)c3ccccc3n2)nc1` [MMV560185, C1CCN(CC1)c2cc(nc3ccccc23)c4ccccn4], for which the viability at 10 µM was 112%. The figure for `CCC(Sc1nc2ccccc2o1)C(=O)Nc1nnc(C)s1` (centres unmarked) [MMV611037, CCC(Sc1oc2ccccc2n1)C(=O)Nc3nnc(C)s3] is 113%; for `O=C(NCCN1CCCC1)c1cc(NCCN2CCOCC2)nc2ccc(Cl)cc12` [MMV634140, Clc1ccc2nc(cc(c2c1)C(=O)NCCN1CCCC1)NCCN1CCOCC1] it is 89%.

Turning to `Cc1nc(-c2ccccn2)nc(N(C)CCc2ccccc2)c1Cl` [MMV658988, CN(CCc1ccccc1)c2nc(nc(C)c2Cl)c3ccccn3], the viability at 10 µM came to 95%. Regarding `Cc1nc(-c2ccccn2)nc(NCCc2ccc(S(C)(=O)=O)cc2)c1Cl` [MMV658993, Cc1nc(nc(NCCc2ccc(cc2)S(=O)(=O)C)c1Cl)c3ccccn3], the viability at 10 µM was 102%. `Cc1nc(-c2ccccn2)nc(N2CCC(Cc3ccccc3)C2)c1Cl` (centres unmarked) [MMV659004, Cc1nc(nc(N2CCC(Cc3ccccc3)C2)c1Cl)c4ccccn4]: the viability at 10 µM was found to be 109%. Take `FC(F)(F)c1cc(NCCc2ccccc2)nc(-c2ccccn2)n1` [MMV659010, FC(F)(F)c1cc(NCCc2ccccc2)nc(n1)c3ccccn3]: the viability at 10 µM was found to be 82%. Regarding `Brc1cncc(-c2cc(NCCCn3ccnc3)nc(-c3ccccc3)n2)c1` [MMV661713, Brc1cncc(c1)c2cc(NCCCn3ccnc3)nc(n2)c4ccccc4], the viability at 10 µM was 98%.

On to `Clc1cccc(C(c2ccc(CN3CCNCC3)cc2)n2ccnc2)c1` (centres unmarked) [MMV663250, Clc1cccc(c1)C(c2ccc(CN3CCNCC3)cc2)n4ccnc4], for which the viability at 10 µM is 75%.

On to `O=C(NCCN1CCCC1)c1cc(NCCCCN2CCC(F)(F)CC2)nc2ccc(Cl)cc12` [MMV667494, FC1(F)CCN(CCCCNc2cc(c3cc(ccc3n2)Cl)C(=O)NCCN2CCCC2)CC1], for which the viability at 10 µM stood at 56%. With `Nc1ncc(-c2ccc(C(F)(F)F)nc2)cc1-c1ccc(C(F)(F)F)nc1` [MMV668727, Nc1ncc(cc1c2ccc(nc2)C(F)(F)F)c3ccc(nc3)C(F)(F)F], the viability at 10 µM amounted to 75%. Regarding `Cc1[nH]c2cc(F)cc(F)c2c(=O)c1-c1ccc(Oc2ccc(OC(F)(F)F)cc2)cc1` [MMV671636, CC1=C(C(=O)c2c(F)cc(F)cc2N1)c3ccc(Oc4ccc(OC(F)(F)F)cc4)cc3], the viability at 10 µM was 101%.

On to `CC(C)(C)c1ccc(N[C@@H]2CCCC[C@H]2NC(=O)c2ccco2)cc1` [MMV675969, CC(C)(C)c1ccc(N[C@@H]2CCCC[C@H]2NC(=O)c3occc3)cc1], for which the viability at 10 µM came out at 114%. Regarding `COc1ccc(-c2nn(C(C)C)c3ncnc(N)c23)cc1OC` [MMV675993, COc1ccc(cc1OC)c2nn(C(C)C)c3ncnc(N)c23], the viability at 10 µM amounted to 38%. As to `Clc1ccc(-n2cc(COc3ccnc4ccccc34)nn2)cc1` [MMV675994, Clc1ccc(cc1)n2cc(COc3ccnc4ccccc34)nn2], the viability at 10 µM is 91%. `COc1ccc(N(CCc2cccc(C)n2)C(C)=O)cc1` [MMV675995, COc1ccc(cc1)N(CCc2cccc(C)n2)C(=O)C]: the viability at 10 µM is 108%.

Take `COc1ccc(N(CCc2cccc(C)n2)C(=O)C2CCCCC2)cc1` [MMV675996, COc1ccc(cc1)N(CCc2cccc(C)n2)C(=O)C3CCCCC3]: the viability at 10 µM is 107%. Take `N#CCN(CCCCN1CCN(c2ccc(F)cc2)CC1)C(=O)OCc1ccccc1` [MMV675997, Fc1ccc(cc1)N2CCN(CCCCN(CC#N)C(=O)OCc3ccccc3)CC2]: the viability at 10 µM came to 97%. The result for `O=C(Nc1c(O)cccc1-c1nc2c(C(=O)O)cccc2o1)c1cc(-c2ccccc2)on1` [MMV676008, OC(=O)c1cccc2oc(nc12)c3cccc(O)c3NC(=O)c4cc(on4)c5ccccc5] reads 110%; that for `Clc1ccc(Cl)c(CO[C@H]2CCCC[C@@H]2n2ccnc2)c1` [MMV676048, Clc1ccc(Cl)c(CO[C@H]2CCCC[C@@H]2n3ccnc3)c1], 104%. `CS(=O)(=O)N1CCC(Cn2nc(Cc3cccc4ccccc34)c3c(N)ncnc32)CC1` [MMV676050, CS(=O)(=O)N1CCC(Cn2nc(Cc3cccc4ccccc34)c5c(N)ncnc25)CC1]: the viability at 10 µM amounted to 117%.

As for `COc1cc(NC(=O)Cc2nn(C)c(=O)c3ccccc23)ccc1Cl` [MMV676053, COc1cc(NC(=O)CC2=NN(C)C(=O)c3ccccc23)ccc1Cl], the viability at 10 µM came out at 100%.

Consider `CC(C)(C)OC(=O)N1CCN(c2cc(-c3ccc(Oc4ccccc4)cc3)n[nH]2)CC1` [MMV676057, CC(C)(C)OC(=O)N1CCN(CC1)c2cc(n[nH]2)c3ccc(Oc4ccccc4)cc3], for which the viability at 10 µM stood at 21%.

In general, viability refers to a read-out of living cells in per cent, often relative to untreated cells.
